Measurements reported in PMC2813745, “A novel inhibitor of the PI3K/Akt pathway based on the structure of inositol 1,3,4,5,6-pentakisphosphate” (British Journal of Cancer, 2010).

Tests used:
[1] = target: ROCK2 (Homo sapiens, UniProt O75116); assay: SelectScreen kinase profiling: ROCK2; format: biochemical; conditions: [ATP] 50 µM
Method: (§1) Effect of the indicated compounds on the activity of various kinases was assessed by SelectScreen Kinase Profiling Service (Invitrogen-Life Technologies, Paisley, UK). Assays were performed using 1 μM of the tested compounds and ATP concentration as indicated in the corresponding tables. In the case of […] a screen using 10 μM of the compound was also carried out, as indicated in the corresponding table.

[2] = target: PRKCE (PKCε) (Homo sapiens, UniProt Q02156); assay: SelectScreen kinase profiling: PRKCE; format: biochemical; conditions: [ATP] 25 µM
Method: as §1

[3] = system: PC3 xenografts; assay: Anti-tumour activity assay on PC3 xenografts; format: in vivo, nude athymic CD-1 nu/nu mice; conditions: for tumour growth: 14 consecutive days
Method: Male nude athymic CD-1 nu/nu mice (8-weeks old) were obtained from Harlan (San Pietro al Natisone, Italy) and maintained under specific pathogen-free conditions with food and water provided ad libitum. The general health status of the animals was monitored daily. Procedure involving animals and their care were conducted in conformity with the institutional guidelines that are in compliance with national and international laws and policies.
Exponentially growing PC3 cells were harvested, washed twice and resuspended in PBS at a concentration of 2.5 × 10^7 cells ml^−1. A suspension of 5 × 10^6 PC3 cells was injected subcutaneously (s.c.) into the left flank of the recipient mice. When tumours reached a size of ∼70 mm^3 (approximately 15 days after tumour cell implant), mice were divided into seven groups (n=7). […] Control mice were treated with water in an equal volume. The diameters of s.c. growing tumours were measured with a caliper twice a week and the experiment was ended at day 28 after the implantation.
The volume of s.c. growing tumours was calculated by the formula: Tumour weight (mg)=(length × width^2)/2. Differences in s.c tumour growth between the treatment groups were evaluated with a one-way ANOVA followed by Fisher's test using the StatView statistical package (SAS Institute, Cary, NC, USA). The percentage of tumour growth was calculated as T/C%=(RTV-treated animals/RTV-control animals) × 100, where RTV was the mean relative tumour volume calculated as RTV=Vt/V0. Vt was the tumour volume on the day of measurement and V0 was the tumour volume at the beginning of the treatment. The percentage of tumour weight inhibition (TWI%) was calculated using the formula: TWI%=100–T/C%. The log cell kill (LCK) was calculated using the formula: LCK=T−C/3.32 × Td, where T−C is the tumour growth delay calculated as the difference in median time (in days) required for the tumours in the treatment (T) and control group (C) to reach a predetermined size (i.e., 1000 mg). Td is the tumour volume doubling time in days, determined in the exponential growth phase of the control group from a best-fit straight line. […]
The inositol compounds (12.5–25–50 mg kg^−1 day^−1) and vehicle (water) were given daily by intraperitoneal (i.p.) injections for 14 consecutive days (days 15–28). Tumour size was assessed twice weekly. (A, B) Tumour growth in 2-O-Bn-InsP5-treated mice (A) and InsP5-treated mice (B) compared with control group measured for the duration of the experiment. Results are expressed as mean±s.e. […] The percentage of tumour weight inhibition (TWI%), the tumour growth delay (T−C) and the log cell kill (LCK) were calculated as described in the MATERIALS AND METHODS section. […] Phosphorylation of Akt at its residues Ser473 and Thr308 was assessed by using specific antibodies. […]

[4] = target: IRAK4 (Homo sapiens, UniProt Q9NWZ3); assay: SelectScreen kinase profiling: IRAK4; format: biochemical; conditions: [ATP] 25 µM
Sequence of IRAK4 (Q9NWZ3 whole entry): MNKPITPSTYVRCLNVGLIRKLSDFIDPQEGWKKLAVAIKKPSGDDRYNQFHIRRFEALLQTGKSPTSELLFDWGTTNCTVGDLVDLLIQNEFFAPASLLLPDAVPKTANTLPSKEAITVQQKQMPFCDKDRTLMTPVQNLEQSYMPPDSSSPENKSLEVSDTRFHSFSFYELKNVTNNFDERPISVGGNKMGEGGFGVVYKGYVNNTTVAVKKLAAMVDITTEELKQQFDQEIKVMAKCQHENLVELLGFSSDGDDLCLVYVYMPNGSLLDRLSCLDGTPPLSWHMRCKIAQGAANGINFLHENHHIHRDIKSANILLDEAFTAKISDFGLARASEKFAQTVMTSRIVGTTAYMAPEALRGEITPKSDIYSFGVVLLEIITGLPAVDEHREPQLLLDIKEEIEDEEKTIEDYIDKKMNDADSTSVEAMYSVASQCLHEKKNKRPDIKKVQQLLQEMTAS
Method: as §1

[5] = target: ABL1 (Homo sapiens, UniProt P00519); assay: SelectScreen kinase profiling: ABL1; format: biochemical; conditions: [ATP] 10 µM
Sequence of ABL1 (P00519 whole entry): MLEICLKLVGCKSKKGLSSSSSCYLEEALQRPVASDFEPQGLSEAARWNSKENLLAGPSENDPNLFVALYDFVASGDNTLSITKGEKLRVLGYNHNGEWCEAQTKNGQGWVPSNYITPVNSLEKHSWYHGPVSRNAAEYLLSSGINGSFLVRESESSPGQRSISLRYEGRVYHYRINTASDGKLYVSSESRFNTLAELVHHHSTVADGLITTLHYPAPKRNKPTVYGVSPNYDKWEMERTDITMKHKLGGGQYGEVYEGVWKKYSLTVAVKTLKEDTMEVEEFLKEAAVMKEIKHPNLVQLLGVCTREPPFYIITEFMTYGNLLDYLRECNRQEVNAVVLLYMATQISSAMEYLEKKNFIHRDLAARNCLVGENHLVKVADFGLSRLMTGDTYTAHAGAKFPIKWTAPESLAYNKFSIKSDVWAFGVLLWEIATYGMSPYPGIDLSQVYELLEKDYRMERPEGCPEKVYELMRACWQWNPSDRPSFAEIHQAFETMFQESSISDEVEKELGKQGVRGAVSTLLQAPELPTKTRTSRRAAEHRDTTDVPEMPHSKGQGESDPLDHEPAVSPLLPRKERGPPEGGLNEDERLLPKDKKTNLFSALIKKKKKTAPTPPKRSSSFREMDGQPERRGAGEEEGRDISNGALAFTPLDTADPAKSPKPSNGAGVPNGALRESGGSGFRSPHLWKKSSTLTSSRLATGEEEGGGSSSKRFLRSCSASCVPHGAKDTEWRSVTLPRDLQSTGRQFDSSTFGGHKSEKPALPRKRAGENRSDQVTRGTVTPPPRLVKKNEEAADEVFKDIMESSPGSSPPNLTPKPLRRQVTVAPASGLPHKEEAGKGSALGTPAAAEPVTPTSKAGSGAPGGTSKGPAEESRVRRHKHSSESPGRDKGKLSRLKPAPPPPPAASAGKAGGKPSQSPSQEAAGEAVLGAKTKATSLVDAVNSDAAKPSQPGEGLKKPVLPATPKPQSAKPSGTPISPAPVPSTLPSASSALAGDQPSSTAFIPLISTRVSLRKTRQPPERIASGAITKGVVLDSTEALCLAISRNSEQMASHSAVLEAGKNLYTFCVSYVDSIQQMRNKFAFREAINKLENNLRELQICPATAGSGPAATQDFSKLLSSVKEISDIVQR
Method: as §1

[6] = target: CDK9/cyclin T1 (Homo sapiens, UniProt P50750); assay: SelectScreen kinase profiling: CDK9/cyclin T1; format: biochemical; conditions: [ATP] 25 µM
Method: as §1

[7] = target: MAPK8 (JNK1) (Homo sapiens, UniProt P45983); assay: SelectScreen kinase profiling: MAPK8; format: biochemical; conditions: [ATP] 100 µM
Sequence of MAPK8 (JNK1) (P45983 whole entry): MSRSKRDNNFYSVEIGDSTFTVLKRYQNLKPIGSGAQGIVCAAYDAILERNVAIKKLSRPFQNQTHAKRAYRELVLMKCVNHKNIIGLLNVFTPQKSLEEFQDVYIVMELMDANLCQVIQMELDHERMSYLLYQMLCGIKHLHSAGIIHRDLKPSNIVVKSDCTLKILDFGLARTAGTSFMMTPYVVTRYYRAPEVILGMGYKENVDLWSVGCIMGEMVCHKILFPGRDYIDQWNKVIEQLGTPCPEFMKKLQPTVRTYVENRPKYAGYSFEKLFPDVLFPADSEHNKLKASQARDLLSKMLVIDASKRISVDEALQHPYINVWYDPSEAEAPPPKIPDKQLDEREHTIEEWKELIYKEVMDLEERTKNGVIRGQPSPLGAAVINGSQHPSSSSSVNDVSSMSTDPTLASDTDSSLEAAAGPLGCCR
Method: as §1

[8] = target: CHUK (IKKα) (Homo sapiens, UniProt O15111); assay: SelectScreen kinase profiling: CHUK; format: biochemical; conditions: [ATP] 10 µM
Method: as §1

[9] = target: CDK7/cyclin H/MNAT1 (Homo sapiens, UniProt P50613); assay: SelectScreen kinase profiling: CDK7/cyclin H/MNAT1; format: biochemical; conditions: [ATP] 150 µM
Method: as §1

[10] = target: Akt1 (PKBα) (Homo sapiens, UniProt P31749); assay: SelectScreen kinase profiling: Akt1; format: biochemical; conditions: 10-point titration; [ATP] 75 μM
Method: Effect of the indicated compounds on the activity of various kinases was assessed by SelectScreen Kinase Profiling Service (Invitrogen-Life Technologies, Paisley, UK). […] In the case of […] a screen using 10 μM of the compound was also carried out, as indicated in the corresponding table.

[11] = target: LCK (Homo sapiens, UniProt P06239); assay: SelectScreen kinase profiling: LCK; format: biochemical; conditions: [ATP] 50 µM
Sequence of LCK (P06239 whole entry): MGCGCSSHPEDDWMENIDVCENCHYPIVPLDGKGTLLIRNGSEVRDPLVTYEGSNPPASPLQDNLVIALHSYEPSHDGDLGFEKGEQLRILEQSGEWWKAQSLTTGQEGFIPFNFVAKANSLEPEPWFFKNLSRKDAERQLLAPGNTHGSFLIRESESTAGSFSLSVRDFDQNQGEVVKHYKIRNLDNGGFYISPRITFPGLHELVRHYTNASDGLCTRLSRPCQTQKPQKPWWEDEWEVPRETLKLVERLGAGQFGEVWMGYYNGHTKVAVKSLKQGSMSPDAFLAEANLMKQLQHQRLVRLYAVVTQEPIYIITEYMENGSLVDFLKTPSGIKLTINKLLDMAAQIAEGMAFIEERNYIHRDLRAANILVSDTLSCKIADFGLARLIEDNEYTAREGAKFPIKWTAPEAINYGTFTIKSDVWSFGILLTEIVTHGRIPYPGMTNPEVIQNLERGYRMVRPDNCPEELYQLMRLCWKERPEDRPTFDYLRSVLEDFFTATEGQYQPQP
Method: as §1

[12] = target: GSK3A (GSK3α) (Homo sapiens, UniProt P49840); assay: SelectScreen kinase profiling: GSK3A; format: biochemical; conditions: [ATP] 10 µM
Method: as §1

[13] = target: CLK1 (Homo sapiens, UniProt P49759); assay: SelectScreen kinase profiling: CLK1; format: biochemical; conditions: [ATP] 25 µM
Method: as §1

[14] = target: CDK2/cyclin A (Homo sapiens, UniProt P24941); assay: SelectScreen kinase profiling: CDK2/cyclin A; format: biochemical; conditions: [ATP] 25 µM
Method: as §1

[15] = target: ROCK1 (Homo sapiens, UniProt Q13464); assay: SelectScreen kinase profiling: ROCK1; format: biochemical; conditions: [ATP] 5 µM
Method: as §1

[16] = target: AKT2 (PKBβ) (Homo sapiens, UniProt P31751); assay: SelectScreen kinase profiling: AKT2; format: biochemical; conditions: for IC50: 10-point titration, [ATP] 200 μM
Sequence of AKT2 (PKBβ) (P31751 whole entry): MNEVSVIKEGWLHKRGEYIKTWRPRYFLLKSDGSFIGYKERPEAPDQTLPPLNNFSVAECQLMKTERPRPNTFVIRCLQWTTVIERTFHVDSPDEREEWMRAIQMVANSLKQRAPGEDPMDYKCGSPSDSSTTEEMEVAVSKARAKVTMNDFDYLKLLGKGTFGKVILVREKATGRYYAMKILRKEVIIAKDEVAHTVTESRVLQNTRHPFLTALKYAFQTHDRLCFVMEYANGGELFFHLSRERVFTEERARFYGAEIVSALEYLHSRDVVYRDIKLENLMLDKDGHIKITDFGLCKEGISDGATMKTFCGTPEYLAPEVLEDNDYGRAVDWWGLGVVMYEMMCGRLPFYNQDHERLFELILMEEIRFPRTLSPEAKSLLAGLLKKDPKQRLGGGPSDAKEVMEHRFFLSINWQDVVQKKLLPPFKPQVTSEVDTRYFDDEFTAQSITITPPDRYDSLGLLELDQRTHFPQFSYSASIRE
Method: as §1

[17] = target: PAK6 (Homo sapiens, UniProt Q9NQU5); assay: SelectScreen kinase profiling: PAK6; format: biochemical; conditions: [ATP] 10 µM
Method: as §1

[18] = target: PRKCD (PKCδ) (Homo sapiens, UniProt Q05655); assay: SelectScreen kinase profiling: PRKCD; format: biochemical; conditions: [ATP] 25 µM
Sequence of PRKCD (PKCδ) (Q05655 whole entry): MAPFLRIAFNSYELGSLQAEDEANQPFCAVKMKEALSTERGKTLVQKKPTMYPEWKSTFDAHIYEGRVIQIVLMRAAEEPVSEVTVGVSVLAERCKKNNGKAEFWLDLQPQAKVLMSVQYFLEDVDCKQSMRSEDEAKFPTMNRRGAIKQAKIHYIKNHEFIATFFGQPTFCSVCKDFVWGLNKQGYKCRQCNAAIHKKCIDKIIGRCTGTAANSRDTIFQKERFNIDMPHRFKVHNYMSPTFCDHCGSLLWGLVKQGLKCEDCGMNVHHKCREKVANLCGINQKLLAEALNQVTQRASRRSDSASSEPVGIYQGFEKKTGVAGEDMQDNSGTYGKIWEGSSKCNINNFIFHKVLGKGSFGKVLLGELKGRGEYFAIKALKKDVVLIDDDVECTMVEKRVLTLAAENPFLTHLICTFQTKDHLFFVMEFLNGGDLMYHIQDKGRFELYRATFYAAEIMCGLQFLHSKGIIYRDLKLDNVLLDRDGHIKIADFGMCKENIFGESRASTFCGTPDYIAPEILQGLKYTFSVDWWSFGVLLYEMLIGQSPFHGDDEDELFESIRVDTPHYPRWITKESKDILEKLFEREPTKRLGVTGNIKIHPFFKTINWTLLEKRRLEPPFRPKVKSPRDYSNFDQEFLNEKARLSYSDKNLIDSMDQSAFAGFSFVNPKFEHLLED
Method: as §1

[19] = target: FRAP1 (mTOR) (Homo sapiens, UniProt P42345); assay: SelectScreen kinase profiling: mTOR; format: biochemical
Method: as §1

Sequence of ROCK2 (O75116 whole entry): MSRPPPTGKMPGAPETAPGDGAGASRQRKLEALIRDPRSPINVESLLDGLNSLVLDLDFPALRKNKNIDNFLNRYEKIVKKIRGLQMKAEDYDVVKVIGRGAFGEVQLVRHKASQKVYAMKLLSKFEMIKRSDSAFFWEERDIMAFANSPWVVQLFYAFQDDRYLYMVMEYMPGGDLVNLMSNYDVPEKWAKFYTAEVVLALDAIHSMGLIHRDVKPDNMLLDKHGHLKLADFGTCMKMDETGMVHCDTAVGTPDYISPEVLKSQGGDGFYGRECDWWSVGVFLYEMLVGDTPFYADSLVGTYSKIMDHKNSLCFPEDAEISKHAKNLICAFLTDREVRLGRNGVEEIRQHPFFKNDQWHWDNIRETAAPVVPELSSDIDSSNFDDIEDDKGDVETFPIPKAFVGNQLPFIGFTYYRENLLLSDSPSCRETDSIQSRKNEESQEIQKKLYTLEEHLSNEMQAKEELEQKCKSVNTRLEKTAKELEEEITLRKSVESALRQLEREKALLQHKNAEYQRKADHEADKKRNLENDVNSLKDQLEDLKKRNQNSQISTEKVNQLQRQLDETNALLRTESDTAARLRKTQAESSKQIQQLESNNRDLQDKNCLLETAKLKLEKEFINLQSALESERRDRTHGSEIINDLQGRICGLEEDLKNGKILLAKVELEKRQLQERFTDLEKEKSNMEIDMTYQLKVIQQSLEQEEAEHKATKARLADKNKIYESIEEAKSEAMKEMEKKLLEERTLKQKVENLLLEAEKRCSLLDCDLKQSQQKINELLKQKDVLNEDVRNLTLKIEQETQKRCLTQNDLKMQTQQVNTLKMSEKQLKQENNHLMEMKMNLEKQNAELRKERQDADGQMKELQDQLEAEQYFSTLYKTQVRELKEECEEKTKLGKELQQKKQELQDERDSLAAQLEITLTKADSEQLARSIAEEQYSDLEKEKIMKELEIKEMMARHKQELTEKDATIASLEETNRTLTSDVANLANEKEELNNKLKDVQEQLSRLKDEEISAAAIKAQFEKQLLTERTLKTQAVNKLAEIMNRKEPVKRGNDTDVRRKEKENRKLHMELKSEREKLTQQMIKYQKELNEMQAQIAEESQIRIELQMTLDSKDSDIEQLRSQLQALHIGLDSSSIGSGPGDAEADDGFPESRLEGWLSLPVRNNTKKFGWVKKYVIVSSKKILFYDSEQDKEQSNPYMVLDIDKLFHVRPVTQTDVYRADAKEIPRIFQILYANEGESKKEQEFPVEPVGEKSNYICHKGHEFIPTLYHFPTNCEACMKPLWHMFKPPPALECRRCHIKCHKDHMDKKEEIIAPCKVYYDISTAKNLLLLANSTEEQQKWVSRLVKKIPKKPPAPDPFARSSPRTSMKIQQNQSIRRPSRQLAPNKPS

O=P(O)(O)OC1C(O)C(OP(=O)(O)O)C(OP(=O)(O)O)C(OP(=O)(O)O)C1OP(=O)(O)O (stereo not shown) [InsP5, inositol 1,3,4,5,6-pentakisphosphate]
inhibition at 10 µM ([1]; 10 µM compound): 15%
inhibition at 10 µM ([2]; 10 µM compound): 0%
tumour growth ([3]; up to 50 mg kg^−1 daily i.p.): no effect
inhibition at 10 µM ([4]; 10 µM compound): -5%
inhibition at 10 µM ([5]; 10 µM compound): -16%
inhibition at 10 µM ([6]; 10 µM compound): 1%
inhibition at 10 µM ([7]; 10 µM compound): 14%
inhibition at 10 µM ([8]; 10 µM compound): 3%
inhibition at 10 µM ([9]; 10 µM compound): 0%
IC50 [10]: > 100 µM
inhibition at 10 µM ([11]; 10 µM compound): -26%
inhibition at 10 µM ([12]; 10 µM compound): 15%
inhibition at 10 µM ([13]; 10 µM compound): 9%
inhibition at 10 µM ([14]; 10 µM compound): 9%
inhibition at 10 µM ([15]; 10 µM compound): 20%
IC50 [16]: 38.3 µM
inhibition at 10 µM ([17]; 10 µM compound): 20%
inhibition at 10 µM ([18]; 10 µM compound): 19%
% Inhibition Mean ([19]; 10 µM compound, [ATP] 10 µM): did not inhibit mTOR
inhibition at 10 µM ([19]; 10 µM compound, [ATP] 10 µM): 16%

O=P(O)(O)OC1C(OCc2ccccc2)C(OP(=O)(O)O)C(OP(=O)(O)O)C(OP(=O)(O)O)C1OP(=O)(O)O (stereo not shown) [2-O-Bn-InsP5, 2-O-benzyl-myo-inositol 1,3,4,5,6-pentakisphosphate]
inhibition at 1 µM ([1]; 1 µM compound): 13%
inhibition at 1 µM ([2]; 1 µM compound): 14%
T-C (tumour growth delay) ([3]; 50 mg kg^-1, i.p., qdx15): ~9 days
tumour growth ([3]; 50 mg kg^−1 daily i.p., significant from day 22): strong reduction in tumour growth
tumour growth ([3]; 12.5 and 25 mg kg^−1 daily i.p., vs untreated mice): clearly decreased the growth of tumours
inhibition at 1 µM ([4]; 1 µM compound): -35%
inhibition at 1 µM ([5]; 1 µM compound): 0%
inhibition at 1 µM ([6]; 1 µM compound): -11%
inhibition at 1 µM ([7]; 1 µM compound): 24%
inhibition at 1 µM ([8]; 1 µM compound): -2%
inhibition at 1 µM ([9]; 1 µM compound): -2%
IC50 [10]: > 100 µM
inhibition at 1 µM ([11]; 1 µM compound): 7%
inhibition at 1 µM ([12]; 1 µM compound): 3%
inhibition at 1 µM ([13]; 1 µM compound): -4%
inhibition at 1 µM ([14]; 1 µM compound): 2%
inhibition at 1 µM ([15]; 1 µM compound): 7%
inhibition at 1 µM ([16]; 1 µM compound, [ATP] 200 µM): 16%
IC50 [16]: 77 µM
inhibition at 1 µM ([17]; 1 µM compound): 9%
inhibition at 1 µM ([18]; 1 µM compound): 9%
inhibition at 1 µM ([19]; 1 µM compound, [ATP] 10 µM): 48%
IC50 ([19]; 10-point titration, [ATP] 10 μM): 1.3 µM
